The values that follow come from ChEMBL document CHEMBL1145550, “Halichonadin E, a dimeric sesquiterpenoid from the sponge Halichondria sp” (J Nat Prod, 2008).

Converted amounts (≈) assume the structure as drawn.

The subject of assay [1] is L1210. The assay is described as follows: Cytotoxicity against mouse L1210 cells. It counts as functional, cell-based.
The test system of assay [2] is KB. The assay is described as follows: Cytotoxicity against human KB cells. It is filed as functional, cell-based.

For the molecule `C=C1CCC[C@]2(C)CC[C@@H](C(C)C)[C@H](NC(=O)N[C@]3(C)CC[C@@H]4[C@H]([C@@H]5[C@H](C)CC[C@H]53)C4(C)C)[C@@H]12` [HALICHONADIN E], the IC50 (commonly the point on the concentration scale where inhibition reaches its midpoint) came out at 3 µg/mL (≈ 6.4 µM) in assay [1] and 2.6 µg/mL (≈ 5.55 µM) in assay [2].
